Measured values from patent EP0182317A2, “Antineoplastic agent” (priority 1984, dated 1986).

Tests used:
Ehrlich carcinoma = experiment: Antineoplastic effect on Ehrlich carcinoma in mice (survival, T/C percent); format: in vivo, male ICR mouse; settings: in the abdomen once a day for 7 days; for response vs control in vivo at 2 mg/kg / response vs control in vivo at 4 mg/kg / response vs control in vivo at 8 mg/kg / response vs control in vivo at 16 mg/kg / response vs control in vivo at 32 mg/kg / response vs control in vivo at 1 mg/kg: Mus musculus, Ehrlich, ip, 720 h
Method: Antineoplastic effect on Ehrlich carcinoma:
(§1) About 10^6/0.2 ml of Ehrlich carcinoma cells were placed in an abdomen of each male ICR mouse of 5 weeks old. On the next day the administration of the test sample in the abdomen was started. The test sample was given once a day for 7 days. For an untreated group, a physiological saline solution was given in the same manner as above. […] The T/C percent (T/C x 100) was determined from the average survival periods (days) of the treated group and control group. Further, 50 % lethal dose (LD50) was determined from the number of the mice which died of toxicity of the test samples administered.

[1] = 50 % lethal dose from toxic deaths in the Ehrlich carcinoma experiment; format: in vivo, male ICR mouse; settings: mice bearing Ehrlich carcinoma, in the abdomen once a day for 7 days; for LD50 at 720 h: mouse, in vivo, ip; for LD50: 43200 min
Method: as §1

[2] = test system: Salmonella typhimurium TA-98; experiment: Antimutagenic properties by Ames method with benzo[a]pyrene as mutagen; format: cell-based; settings: for Number of colonies: B(a)P, S-9 mix; for inhibition rate: inhibition of the mutagenic effect of B(a)P
Method: The experiment was carried out by Ames method using Salmonella typhimurium TA-98 (hereinafter referred to as TA-98) as the test microorganism and benzo[a]pyrene (hereinafter referred to as B(a)P) as the mutagen.
0.1 ml of a solution containing […] of B(a)P and a suitable amount of a compound of the present invention was added to 0.5 ml of S-9 mix and 0.1 ml of a TA-98 suspension. The mixture was incubated at 37°C for 20 min. 2 ml of soft agar was added thereto, mixed well and then spread evenly on a glucose minimum agar medium plate. After the incubation at 37°C for 48 h, the number of colonies formed by the back mutation was counted.
The number of the colonies formed when neither B(a)P nor the compound of the present invention was used was employed as the background.
The antimutagenic properties was shown as the rate of inhibition of the mutagenic effect according to the following formula: [formula]

[3] = dose 2.0 mg/kg, observation period 60 days
[4] = dose 4.0 mg/kg, observation period 60 days
[5] = dose 8.0 mg/kg, observation period 60 days
[6] = dose 4.0 mg/kg, observation period 30 days
[7] = dose 8.0 mg/kg, observation period 30 days
[8] = dose 1.0 mg/kg, observation period 60 days
[9] = dose 2.0 mg/kg, observation period 30 days

Compound	response vs control in vivo at 2 mg/kg (Ehrlich carcinoma; [3])	response vs control in vivo at 4 mg/kg (Ehrlich carcinoma; [4])	response vs control in vivo at 8 mg/kg (Ehrlich carcinoma; [5])	response vs control in vivo at 16 mg/kg (Ehrlich carcinoma; observation period 60 days)	LD50 at 720 h [1]	Antineoplastic effect (T/C percent) (Ehrlich carcinoma; [3])	Antineoplastic effect (T/C percent) (Ehrlich carcinoma; [4])	Antineoplastic effect (T/C percent) (Ehrlich carcinoma; [5])	LD50 [1]	other results
CCO[Se](=O)OCC [Compound 9, diethyl selenite]	246%	203%	201%	14%	4 to 8 mg/kg					
selenium oxybromide·dioxane complex [Compound 8]						182%	226%	228%	8 - 16 mg/kg/day x7	
CCO[Se](=O)c1ccccc1 (stereo not drawn) [Compound 2, ethyl phenylseleninate]		118%	134%	193%	16 to 32 mg/kg					response vs control in vivo at 4 mg/kg (Ehrlich carcinoma; [6]): 118%; response vs control in vivo at 8 mg/kg (Ehrlich carcinoma; [7]): 134%; response vs control in vivo at 32 mg/kg (Ehrlich carcinoma; observation period 30 days): 87.9%; response vs control in vivo at 32 mg/kg (Ehrlich carcinoma; observation period 60 days): 88%; response vs control in vivo at 16 mg/kg (Ehrlich carcinoma; observation period 30 days): 150%
O=[Se](OCCCl)OCCCl [Compound 12, di(2-chloroethyl) selenite]	197%	225%	194%	65%	8 mg/kg					
CCCO[Se](=O)OCCC [Compound 10, di(n-propyl) selenite]	175%	170%	102%	14%	8 mg/kg					
2,2-dimethyl-1,3-propanediol selenite [Compound 18]						193%	194%	194%		Antineoplastic effect (T/C percent) (Ehrlich carcinoma; [8]): 164%
CC(Cl)CO[Se](=O)OCC(C)Cl (stereo not drawn) [Compound 13, di(2-chloropropyl) selenite]	190%	234%	219%	71%	8 to 16 mg/kg					
selenium oxychloride·isoquinoline complex [Compound 6]						211%	206%	187%		Antineoplastic effect (T/C percent) (Ehrlich carcinoma; [9]): 158.5%; Antineoplastic effect (T/C percent) (Ehrlich carcinoma; [6]): 164.8%; Antineoplastic effect (T/C percent) (Ehrlich carcinoma; [7]): 162.9%
selenium oxychloride·quinoline complex [Compound 5]						131%	199%	269%	>16 mg/kg/day x7	Antineoplastic effect (T/C percent) (Ehrlich carcinoma; [9]): 131.4%; Antineoplastic effect (T/C percent) (Ehrlich carcinoma; [6]): 156.0%; Antineoplastic effect (T/C percent) (Ehrlich carcinoma; [7]): 181.8%
O=[Se]1OCCO1 [Compound 14, 1,2-ethanediol selenite]	193%	266%	108%	34%	4 to 8 mg/kg					Number of colonies ([2]; dose 0.5 µg/plate): 231; inhibition rate ([2]; dose 0.5 µg/plate): 23.1%; Number of colonies ([2]; dose 1 µg/plate): 235; inhibition rate ([2]; dose 1 µg/plate): 21.6%; Number of colonies ([2]; dose 5 µg/plate): 156; inhibition rate ([2]; dose 5 µg/plate): 51.1%; Number of colonies ([2]; dose 10 µg/plate): 145; inhibition rate ([2]; dose 10 µg/plate): 55.2%; Number of colonies ([2]; dose 50 µg/plate): 76; inhibition rate ([2]; dose 50 µg/plate): 81.0%; Number of colonies ([2]; dose 100 µg/plate): 62; inhibition rate ([2]; dose 100 µg/plate): 86.2%; Number of colonies ([2]; dose 500 µg/plate): 32; inhibition rate ([2]; dose 500 µg/plate): 97.4%
selenium oxychloride·pyridine complex [Compound 4]						218%	270%	297%	8 - 16 mg/kg/day x7	Antineoplastic effect (T/C percent) (Ehrlich carcinoma; [9]): 178.6%; Antineoplastic effect (T/C percent) (Ehrlich carcinoma; [6]): 188.1%; Antineoplastic effect (T/C percent) (Ehrlich carcinoma; [7]): 200.8%; Number of colonies ([2]; dose 0.5 µg/plate): 213; inhibition rate ([2]; dose 0.5 µg/plate): 23.0%; Number of colonies ([2]; dose 1 µg/plate): 192; inhibition rate ([2]; dose 1 µg/plate): 32.8%; Number of colonies ([2]; dose 5 µg/plate): 180; inhibition rate ([2]; dose 5 µg/plate): 37.7%; Number of colonies ([2]; dose 10 µg/plate): 144; inhibition rate ([2]; dose 10 µg/plate): 52.5%; Number of colonies ([2]; dose 50 µg/plate): 93; inhibition rate ([2]; dose 50 µg/plate): 73.4%; Number of colonies ([2]; dose 100 µg/plate): 87; inhibition rate ([2]; dose 100 µg/plate): 75.8%; Number of colonies ([2]; dose 500 µg/plate): 41; inhibition rate ([2]; dose 500 µg/plate): 94.7%
O=[Se](O)c1ccccc1 [Compound 1, phenylseleninic acid]	123%	129%	141%	149%	> 16 mg/kg					response vs control in vivo at 2 mg/kg (Ehrlich carcinoma; [9]): 123%; response vs control in vivo at 4 mg/kg (Ehrlich carcinoma; [6]): 129%; response vs control in vivo at 8 mg/kg (Ehrlich carcinoma; [7]): 141%; response vs control in vivo at 16 mg/kg (Ehrlich carcinoma; observation period 30 days): 149%
CC(C)O[Se](=O)OC(C)C [Compound 11, diisopropyl selenite]	204%	236%	126%	14%	4 to 8 mg/kg					
selenium oxychloride·dioxane complex [Compound 7]						211%	225%	194%	8 - 16 mg/kg/day x7	
selenium tetrabromide [Compound 20]						196%	272%	183%	8-16 mg/kg/day x7	
selenium tetrachloride·pyridine complex [Compound 21]						155%	217%	246%	8-16 mg/kg/day x7	
CC1CO[Se](=O)O1 (stereo not drawn) [Compound 15, 1,2-propanediol selenite]	258%	204%	105%		8 mg/kg					response vs control in vivo at 1 mg/kg (Ehrlich carcinoma; [8]): 227%
O=[Se]1OCCCO1 [Compound 17, 1,3-propanediol selenite]	221%	197%	83%		4 to 8 mg/kg					response vs control in vivo at 1 mg/kg (Ehrlich carcinoma; [8]): 174%
2,3-butanediol selenite [Compound 16]						216%	261%	174%		Antineoplastic effect (T/C percent) (Ehrlich carcinoma; [8]): 185%
selenium tetrachloride [Compound 19]						179%	249%	183%	>16 mg/kg/day x7	Antineoplastic effect (T/C percent) (Ehrlich carcinoma; [8]): 167%
